In patent US5147875A, “2-(substituted phenyl)-4-oxo-quinazolines” (Sanshin Kogyo Kabishiki Kaisha, priority 1988, dated 1992):

system: U46619-induced broncho-constriction; assay: Bronchodilatation in vivo: U46619-induced bronchoconstriction in anaesthetised guinea-pigs; parameters: species or system guinea-pig; conditions: 10 μmol/kg i.v. bolus; anaesthetised male Dunkin Hartley guinea-pigs; U46619 infused i.v. 2.5 nmol/min
Description: Male guinea-pigs of the Dunkin Hartley strain (500-600 g) were anaesthetised with Sagatal (pentobarbital sodium) (60 mg/kg). Airway resistance was measured using a modification of the classical Konzett-Rossler technique (Versuchsanordnung zu Untersuchungen an der Bronchialmuskulatur. Naunyn-Schmiedebergs Arch. Exp. Path. Pharmak., vol 195: pp 71-74, (1940)). U46619 (9,11-methanoepoxy-PGH2) was infused i.v. at a rate of 2.5 nmol/min, this produced a steady state of broncho-constriction (approximately 120% increase from basal airway resistance). The compound under test was administered by i.v. bolus injection, and the subsequent peak inhibition of bronchoconstriction recorded.
Administration of the compound of Example 1 (10 μmol/kg) reduced the U46619-induced broncho-constriction by 34%.

Row | SMILES | reduction of U46619-induced broncho-constriction (peak inhibition) [%]
1 | CCCOc1ccccc1-c1nc2ccccc2c(=O)[nH]1 [Example 1, 2-(2-Propoxyphenyl)quinazolin-4(3H)-one] | 34

molecular target: calmodulin insensitive cyclic GMP phosphodiesterase; assay: Phosphodiesterase activity: inhibition of calmodulin insensitive cyclic GMP phosphodiesterase; type: biochemical; conditions: procedure of European Patent Application No. 293063; read-out: IC50 (concentration of inhibitor required for 50% inhibition of enzyme activity)
Description: The activity of the compounds of the present invention as inhibitors of a calmodulin insensitive cyclic GMP phosphodiesterase was measured using the procedure described in European Patent Application No. 293063. […] The compounds of the present invention have the advantage that they are selective in not inhibiting cyclic AMP phosphodiesterase (type III).

Row | SMILES | IC50 [µM]
2 | CCCOc1ccccc1-c1nc2ccccc2c(=O)[nH]1 [Example 1, 2-(2-Propoxyphenyl)quinazolin-4(3H)-one] | 0.71 to 5.3
3 | CCCOc1ccccc1-c1nc2cc(SC)ccc2c(=O)[nH]1 [Example 2, 7-Methylthio-2-(2-propoxyphenyl)quinazolin-4(3H)-one] | 0.71 to 5.3
4 | CCCOc1ccccc1-c1nc2cc([N+](=O)[O-])ccc2c(=O)[nH]1 [Example 3, 7-Nitro-2-(2-Propoxyphenyl)-4(3H)-quinazolinone] | 0.71 to 5.3

Now from value to molecule:

Row | IC50 [µM] | SMILES
5 | 0.71 to 5.3 | CCCOc1ccccc1-c1nc2cc(N)ccc2c(=O)[nH]1 [Example 4, 7-Amino-2-(2-Propoxyphenyl)-4(3H)-quinazolinone]
6 | 0.71 to 5.3 | CCCOc1ccccc1-c1nc2cc(NC)ccc2c(=O)[nH]1 [Example 5, 7-Methylamino-2-(2-Propoxyphenyl)-4(3H)-quinazolinone]
